{"source": "paper PMC6988309", "about": "“Preclinical efficacy for a novel tyrosine kinase inhibitor, ArQule 531 against acute myeloid leukemia” (Journal of Hematology & Oncology, 2020)", "key": {"[1]": {"tested_on": "BTK phosphorylation", "test": "Immunoblot of phospho-BTK", "assay_type": "cell-based, human", "experimental": "(§1) Cells were washed in ice-cold PBS then lysed in 1X Cell Lysis Buffer (CST) supplemented with proteinase and phosphatase inhibitors cocktail (Roche). Pierce BCA Protein Assay was used to quantify the protein lysates (Thermo Fisher Scientific, Waltham, MA). For Immunoblotting, 15–25 μg of protein lysate was prepared in 2X or 4X Laemmeli’s sample buffer (Bio-Rad Laboratories, Hercules, CA) and heated for 5 min at 100 °C. Samples were separated on 8% sodium dodecyl sulfate polyacrylamide gel and transferred onto nitrocellulose membrane (Bio-Rad Laboratories, Hercules, CA). The membranes were blocked for 1 h in Blocker BLOTTO Blocking Buffer (Thermo Fisher Scientific, Waltham, MA) or 5% non-fat milk followed by overnight incubation at 4 °C with primary antibody followed by HRP-conjugated secondary antibodies and visualized with chemiluminescent Pierce ECL Substrate (Thermo Fisher Scientific, Waltham, MA) on X-ray films.\nImmunoblot analysis for MOLM-13, MV4-11, and OCI-AML3 AML cell lines (representative of 2-3 independent blots). […] Twenty to 25 μg of total protein lysate was loaded per lane."}, "[2]": {"tested_on": "MOLM-13", "test": "MTS proliferation assay 72 h, MOLM-13", "details": "MOLM-13, 1 µM, 72 hours MTS (ibrutinib 1 hour washout)", "method": "A total of 5000–30,000 cells from the lines above were treated in a 96-well plate for 72 h. CellTiter 96 Aqueous MTS reagent (Promega, Madison, WI) was added to cells followed by a 3-h incubation at 37 °C, 5% CO2. The absorbance was measured at 490 nm using DTX 880 plate reader and the half maximal inhibitory concentration (IC50) was calculated using GraphPad Prism 7 (GraphPad Software, La Jolla, CA) and SAS/STAT software (SAS v9.4 for Windows, SAS Institute, Inc., Cary, NC). For the MOLM-13 resistant and the Ba/F3-FLT3-ITD/TKD cell lines, cells were treated for 72 h and cell viability was evaluated using MTT assay (Roche Diagnostics. Mannheim. Germany) according to the manufacturer’s instructions."}, "[3]": {"tested_on": "MOLM-13, MV4-11, and OCI-AML3 cell lines", "test": "Annexin/PI apoptosis assay 72 h", "assay_type": "cell-based, human", "details": "increasing concentrations of ARQ 531 or 50 nM gilteritinib", "experimental": "Cells were treated for 72 h then stained for 20 min in 1X Annexin Binding buffer (BD Biosciences, Franklin Lakes, NJ) containing Annexin V-FITC and Propidium Iodine (Leinco Technologies, Fenton, MO). Live and apoptotic cells were measured using FC 500 flow cytometer and analyzed on Kaluza software (Beckman Coulter, Pasadena, CA)."}, "[4]": {"tested_on": "Ba/F3 FLT3-ITD pMIT SYK-TEL", "method": "(§3) CellTiter 96 Aqueous MTS reagent (Promega, Madison, WI) was added to cells followed by a 3-h incubation at 37 °C, 5% CO2. The absorbance was measured at 490 nm using DTX 880 plate reader and the half maximal inhibitory concentration (IC50) was calculated using GraphPad Prism 7 (GraphPad Software, La Jolla, CA) and SAS/STAT software (SAS v9.4 for Windows, SAS Institute, Inc., Cary, NC)."}, "[5]": {"tested_on": "phosphorylated SYK (tyrosine 525/526)", "test": "Immunoblot of phospho-SYK Tyr525/526", "assay_type": "cell-based, human", "details": "MOLM-13, MV4-11, and OCI-AML3, 10-min treatment", "experimental": "as §1, with “Cell lines were serum starved overnight followed by a 10-min treatment. Cells” for “Cells”\nFig. 3 ARQ 531 modulates AML pro-survival kinases. Immunoblot analysis for MOLM-13, MV4-11, and OCI-AML3 AML cell lines (representative of 2-3 independent blots). […] Twenty to 25 μg of total protein lysate was loaded per lane. GAPDH, HSP90, or β-Actin were used as loading controls. a, b Modulation of phosphorylated SFK and downstream targets in FLT3-ITD cell lines MOLM-13 and MV-11, respectively. c, d Modulation of phosphorylated SYK and BTK in all three cell lines"}, "[6]": {"tested_on": "primary AML patient blasts", "test": "MTS proliferation assay, primary AML blasts co-cultured with HS5-GFP stroma cells, 96 h", "assay_type": "cell-based, human", "details": "HS5-GFP co-culture", "excerpt": "For in vitro cytotoxicity experiments (Fig. 1b–d), repeated measures models were used to account for correlations among observations from the same experiment. The percentage of live cells was compared at each concentration with DMSO. […] Mixed effects models were used in experiments described in Additional file 1: Table S4 and Fig. 2c to account for correlations within a single patient. Outcome data were first log-transformed to stabilize variances and reduce skewness. For survival experiments (Figs. 5 and 6a), Kaplan-Meier curves were produced and group differences for Fig. 5 and assessed by the log-rank test and for Fig. 6a, p values have been adjusted for multiple comparisons using Holm’s procedure. p values from experiments with multiple endpoints were adjusted for multiple comparisons using either Holm’s procedure or Dunnett’s test (all comparisons against vehicle/DMSO).\n(§2) MTS proliferation assay using a human stroma co-culture assay. […] FLT3 wild-type (WT) samples (red) and FLT3-ITD (black). Colony-Forming Unit-Granulocyte and Macrophage (CFU-GM) assay. […] Number of colonies were counted after 14 days (c)"}, "[7]": {"tested_on": "primary AML patient blasts", "test": "Colony-Forming Unit-Granulocyte and Macrophage (CFU-GM) assay", "assay_type": "cell-based, human", "details": "0.1 µM, colonies counted after 14 days", "experimental": "Primary AML patient samples were treated and plated at 5000–10,000 cells in 1.1 ml methylcellulose supplemented with recombinant human stem cell factor, interleukin 3, granulocyte colony-stimulating factor, and granulocyte-macrophage colony-stimulating factor (MethoCult™, […] Technologies, Vancouver, Canada) per dish in duplicates. Colonies were counted after 14 days when using primary patient samples.\nas §2"}, "[8]": {"tested_on": "MOLM-13 disseminated AML xenograft", "test": "MOLM-13 disseminated xenograft, ARQ + Ven combination study (NCG mice)", "assay_type": "in vivo", "details": "50 mg/kg ARQ 531 and/or 75 mg/kg venetoclax Q.D.P.O from 4 days post-engraftment until ERC; vehicle 25 days", "experimental": "All experiments were conducted after approval of The Ohio State University Institutional Animal Care and Use Committee. Mice were randomized and enrolled for daily oral gavage (Q.D.P.O) treatment of vehicle or 50 mg/kg ARQ 531. Mice were treated until reaching early removal criteria (ERC) defined as 20% weight loss, lethargy, hind limb paralysis, moribund, anorexia, dehydration, hunched posture, severe diarrhea, breathing difficulties, or any abnormal neurological symptoms. […]\nFig. 7 BCL2 inhibition improves ARQ 531 in vivo activity. a Kaplan–Meier survival curve in the MOLM-13 xenograft after mice were treated with vehicle (N = 9) or 50 mg/kg ARQ 531 Q.D.P.O (N = 9) or 75 mg/kg venetoclax Q.D.P.O (N = 10) or 50 mg/kg ARQ 531 and 75 mg/kg venetoclax combination Q.D.P.O (N = 10) at 4 days post engraftment until ERC. b Noninvasive serial whole body bioluminescence imaging of ventral view to monitor leukemia progression and regression post treatment. Mice were injected with 150 mg/kg Firefly D-Luciferin for evaluation of tumor burden as determined by whole body bioluminescence imaging using IVIS imager"}, "[9]": {"tested_on": "Ba/F3 FLT3-ITD Parental", "method": "as §3"}}, "note": "Values joined by “and” are separate entries in the source; they are usually repeats but may differ in a detail not shown here. Identical values can stand only once.", "data": [{"smiles": "C=CC(=O)N1CCC[C@@H](n2nc(-c3ccc(Oc4ccccc4)cc3)c3c(N)ncnc32)C1", "note": "[ibrutinib, reference compound]", "values": [{"measurement": "effect on BTK phosphorylation", "setting": "[1]", "result": "potently inhibit BTK phosphorylation"}, {"measurement": "in vitro anti-proliferative activity", "setting": "[2]", "result": "only ARQ 531 demonstrated in vitro anti-proliferative activity"}]}, {"smiles": "CCc1nc(C(N)=O)c(Nc2ccc(N3CCC(N4CCN(C)CC4)CC3)c(OC)c2)nc1NC1CCOCC1", "note": "[Gilteritinib, reference compound]", "values": [{"measurement": "apoptosis / cytotoxicity (Annexin/PI)", "setting": "[3]", "result": "cytotoxic in the FLT3-ITD cell lines only"}, {"measurement": "IC50", "setting": "[4]", "result": "651 nM and 415 nM and 456 nM"}, {"measurement": "effect on phosphorylated SYK (tyrosine 525/526)", "setting": "[5]", "result": "down-modulated SYK phosphorylation only in the FLT3-ITD cell lines"}, {"measurement": "Estimated Ratio of proliferation versus vehicle (DMSO)", "setting": "[6]; 0.005 µM", "result": 1.02}, {"measurement": "Estimated Ratio of proliferation versus vehicle (DMSO)", "setting": "[6]; 0.01 µM", "result": 1.05}, {"measurement": "Estimated Ratio of proliferation versus vehicle (DMSO)", "setting": "[6]; 0.05 µM", "result": 1.06}, {"measurement": "Estimated Ratio of proliferation versus vehicle (DMSO)", "setting": "[6]; 0.1 µM", "result": 1.02}, {"measurement": "Estimated Ratio of proliferation versus vehicle (DMSO)", "setting": "[6]; 0.5 µM", "result": 0.99}, {"measurement": "Estimated Ratio of proliferation versus vehicle (DMSO)", "setting": "[6]; 1 µM", "result": 0.87}, {"measurement": "Estimated Ratio of proliferation versus vehicle (DMSO)", "setting": "[6]; 5 µM", "result": 0.78}, {"measurement": "Estimated Ratio of proliferation versus vehicle (DMSO)", "setting": "[6]; 10 µM", "result": 0.56}, {"measurement": "Estimated Ratio of proliferation versus vehicle (DMSO)", "setting": "[6]; 50 µM", "result": 0.54}, {"measurement": "Estimated ratio of colony formation vs. DMSO", "setting": "[7]", "result": 0.67}]}, {"smiles": "CC(C)(C)c1cc(NC(=O)Nc2ccc(-c3cn4c(n3)sc3cc(OCCN5CCOCC5)ccc34)cc2)no1", "note": "[quizartinib, Quizartinib]", "values": [{"measurement": "effect on phosphorylated SYK (tyrosine 525/526)", "setting": "[5]", "result": "down-modulated SYK phosphorylation only in the FLT3-ITD cell lines"}]}, {"smiles": "CC1(C)CCC(CN2CCN(c3ccc(C(=O)NS(=O)(=O)c4ccc(NCC5CCOCC5)c([N+](=O)[O-])c4)c(Oc4cnc5[nH]ccc5c4)c3)CC2)=C(c2ccc(Cl)cc2)C1", "note": "[venetoclax, reference compound]", "values": [{"measurement": "survival", "setting": "[8]", "result": 24, "unit": "days"}]}, {"smiles": "c1cn2cc(-c3ccc4cn[nH]c4c3)nc(Nc3ccc(N4CCOCC4)cc3)c2n1", "note": "[entospletinib, Entospletinib, reference compound]", "values": [{"measurement": "in vitro anti-proliferative activity", "setting": "[2]", "result": "potently inhibited proliferation"}]}, {"smiles": "CO[C@@H]1[C@H](N(C)C(=O)c2ccccc2)C[C@H]2O[C@]1(C)n1c3ccccc3c3c4c(c5c6ccccc6n2c5c31)C(=O)NC4", "note": "[Midostaurin, reference compound]", "values": [{"measurement": "effect on phosphorylated SYK (tyrosine 525/526)", "setting": "[5]", "result": "down-modulated SYK phosphorylation only in the FLT3-ITD cell lines"}, {"measurement": "IC50", "setting": "[9]", "result": "95.4 nM and 63.3 nM"}]}]}
